Here are results for ten compounds from ChEMBL document CHEMBL1201862, “PubChem BioAssay data set” (2004).

SMILES strings stand for the structures.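 Growth conditions: 96-well plates. Treatment: test compound, 48 hours, 5 concentrations. Analysis: linear interpolation between bracketing concentrations; unreached endpoints set to highest concentration. At the GI50, growth is halved.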 Activity calls are given as the source filed them. Rule as the data show it: active = GI50 up to about 1.1 µM and inactive = higher.

Common to all, as to assay: NCI-60 cell line screen, 48 h
Assay [1] relates to ACHN.
Assay [2] concerns SR.
The test system of assay [3] is CCRF-CEM.
Assay [4] concerns RPMI-8226.
For assay [5], the system named is LOX IMVI.
Assay [6] deals with SF-268.
Assay [7] deals with K562.
The subject of assay [8] is SW-620.
Assay [9] relates to A498.
For assay [10], the system named is NCI-H522.
Assay [11] has as its system SK-MEL-5.
The test system of assay [12] is NCI-H23.
Assay [13] has as its system SNB-19.
Assay [14] deals with A549.
The subject of assay [15] is SF-539.
For assay [16], the system named is MDA-MB-231.
For assay [17], the system named is BT-549.
For assay [18], the system named is T47D.
Assay [19] deals with MDA-MB-435.
The test system of assay [20] is COLO 205.

On to `C=C1C(=O)O[C@@H]2/C=C(\C)CC/C=C(/COC(C)=O)C[C@@H](OC(C)=O)[C@@H]12`, for which the GI50 is 4.38 µM (inactive) in assay [1]; 2.16 µM (inactive) in assay [2]; 0.718 µM (active) in assay [3]; 3.39 µM (inactive) in assay [4]; 5.19 µM (inactive) in [5]; 11.3 µM (inactive) in [6]. Also, the GI50 was 3.21 µM (inactive) in assay [7]; 3.94 µM (inactive) in [8]; 19 µM (inactive) in assay [9]; 1.16 µM (inactive) in [10]; 11.6 µM (inactive) in [11]; 13.6 µM (inactive) in assay [12]. Besides, the GI50 in assay [13] is 29.2 µM (inactive); in assay [14], 37.4 µM (inactive); in [15] it was 16.2 µM (inactive); in assay [16] it was 14.9 µM (inactive); in assay [17] it was 3.91 µM (inactive); in assay [18], 11.4 µM (inactive). Moreover, the figures for the GI50 in assay [19] and in [20] were 14.2 µM (inactive) and 3.44 µM (inactive), respectively.

Regarding `O=C(CBr)NCCc1c[nH]c2ccccc12`, the GI50 was 1.73 µM (inactive) in assay [1]; 0.344 µM (active) in assay [2]; 0.174 µM (active) in assay [3]; 1.97 µM (inactive) in assay [4]; 0.482 µM (active) in assay [5]; 2.16 µM (inactive) in [6]. Besides, the GI50 in assay [7] is 1.44 µM (inactive); in assay [8], 2.03 µM (inactive); in [9], 19 µM (inactive); in assay [10], 0.229 µM (active); in assay [11] it was 1.17 µM (inactive); in [12], 1.46 µM (inactive). Besides, the GI50 in [13] is 6.17 µM (inactive); in assay [14], 2.14 µM (inactive); in assay [15], 1.81 µM (inactive); in assay [16] it was 2.23 µM (inactive); in [17] it was 1.77 µM (inactive); in assay [18], 1.74 µM (inactive). Besides, the figures for the GI50 in [19] and in assay [20] were 1.52 µM (inactive) and 1.65 µM (inactive), respectively.

Regarding `O=C(O)CSCCc1ccccc1`, the GI50 in assay [1], in assay [2], in [4], in assay [5], in assay [6] and in [7] was > 100 µM (inactive) each time. Also, the GI50 in assay [8], in assay [9], in assay [10], in assay [11], in [12] and in [13] was > 100 µM (inactive) throughout. Besides, the GI50 in assay [14], in assay [15], in assay [16], in assay [17], in assay [18] and in [19] was > 100 µM (inactive) throughout. Further, the GI50 in assay [20] is > 100 µM (inactive).

As for `C(=N\c1nc2cc3sc(/N=C/c4cccs4)nc3cc2s1)/c1cccs1`, the GI50 in [1] is > 100 µM (inactive); in [2], 26.1 µM (inactive); in assay [3], 11.5 µM (inactive); in [4], > 100 µM (inactive); in assay [5], 66.5 µM (inactive); in assay [6], > 100 µM (inactive). Also, the GI50 in [7] is > 100 µM (inactive); in [9], > 100 µM (inactive); in [10], 45.2 µM (inactive); in assay [11], 33 µM (inactive); in assay [12], 69.2 µM (inactive); in [13], > 100 µM (inactive). The GI50 in [14] was 11.5 µM (inactive); in assay [15] it was > 100 µM (inactive); in [16], > 100 µM (inactive); in [17] it was > 100 µM (inactive); in assay [18], > 100 µM (inactive); in assay [19], > 100 µM (inactive). Also, in assay [20], the GI50 is 3.4 µM (inactive).

With `O=c1c2ccccc2[nH]c2c(Cl)cc(Cl)c(NC3CCCCC3)c12`, the GI50 was 15.6 µM (inactive) in assay [1]; 12 µM (inactive) in assay [2]; > 10 µM (inactive) in [3]; 28.3 µM (inactive) in assay [4]; 36.5 µM (inactive) in assay [5]; 22.4 µM (inactive) in assay [7]. Also, the GI50 is 22.6 µM (inactive) in assay [8]; 19.4 µM (inactive) in assay [9]; 20.1 µM (inactive) in assay [10]; 36.3 µM (inactive) in assay [11]; 17 µM (inactive) in [12]; 13.2 µM (inactive) in assay [13]. Further, the GI50 is 29.9 µM (inactive) in assay [14]; 23.2 µM (inactive) in [15]; 29 µM (inactive) in assay [16]; 27.5 µM (inactive) in [17]; 31.1 µM (inactive) in [18]; 16.9 µM (inactive) in assay [19]. Also, the GI50 in assay [20] was 31.8 µM (inactive).

On to `O=C1C=C(OCCCl)C(=O)c2c(O)ccc(O)c21`, for which the GI50 is 1.54 µM (inactive) in assay [1]; 0.861 µM (active) in assay [2]; 0.469 µM (active) in [3]; 2.08 µM (inactive) in [4]; 0.202 µM (active) in [5]; 0.931 µM (active) in assay [6]. For the same compound, the GI50 in [7] is 2.25 µM (inactive); in assay [9] it was 1.28 µM (inactive); in assay [10], 2.32 µM (inactive); in assay [11], 0.173 µM (active); in assay [12], 0.242 µM (active); in assay [13], 1.02 µM (active). The GI50 in assay [14] is 0.262 µM (active); in assay [15] it was 1.36 µM (inactive); in [16], 1.78 µM (inactive); in [17] it was 0.226 µM (active); in assay [18], 2.24 µM (inactive); in assay [19], 0.204 µM (active). In assay [20], the GI50 was 0.181 µM (active).

As to `Cc1ccc(-c2[nH]c(=O)n(C3OC(CO)C(O)C(O)C3O)c(=O)c2C#N)cc1` (stereo not given), the GI50 was > 100 µM (inactive) in [1]; 95.3 µM (inactive) in assay [2]; > 100 µM (inactive) in assay [3]; > 100 µM (inactive) in assay [4]; > 100 µM (inactive) in [6]; > 100 µM (inactive) in [7]. The GI50 in assay [8], in assay [9], in assay [10], in assay [11], in [12] and in [13] was > 100 µM (inactive) throughout. Besides, the GI50 in assay [14], in [15], in assay [16], in assay [17], in [18] and in [19] was > 100 µM (inactive) each time. Also, in assay [20], the GI50 is > 100 µM (inactive).

For the compound `CSC1=Nc2ccccc2-c2nc(-c3ccccc3)cc(-c3ccccc3)c2C1`, the GI50 in assay [1] is 12.4 µM (inactive); in assay [2], 31.3 µM (inactive); in assay [3] it was > 100 µM (inactive); in assay [4] it was > 100 µM (inactive); in assay [5], 23.2 µM (inactive); in assay [7], 30.8 µM (inactive). The GI50 was 15.7 µM (inactive) in assay [8]; 9.93 µM (inactive) in assay [9]; 4.7 µM (inactive) in assay [10]; 16.6 µM (inactive) in [11]; 12.4 µM (inactive) in assay [12]; 6.4 µM (inactive) in assay [13]. The GI50 in assay [14] was 16 µM (inactive); in [15], 19.2 µM (inactive); in [16], 14.2 µM (inactive); in [17], 39.7 µM (inactive); in assay [18], 10.4 µM (inactive); in assay [19], 22.2 µM (inactive). The GI50 in assay [20] is 55 µM (inactive).

As to `CCCCNC(=S)Nc1nc(C(=O)NNC(=S)NCc2ccccc2)cs1`, the GI50 in assay [1] was 26.6 µM (inactive); in [2], 8.24 µM (inactive); in [3], > 10 µM (inactive); in [4] it was 45.9 µM (inactive); in assay [5] it was 18.7 µM (inactive); in assay [6] it was 20.6 µM (inactive). Further, the GI50 was 34.4 µM (inactive) in assay [7]; 48.2 µM (inactive) in assay [8]; > 100 µM (inactive) in assay [9]; 48.5 µM (inactive) in [10]; 16.3 µM (inactive) in [11]; 75 µM (inactive) in assay [12]. The GI50 in assay [14] was 52.4 µM (inactive); in assay [15] it was 31.9 µM (inactive); in [16], 66.4 µM (inactive); in assay [17], 67 µM (inactive); in assay [18], 13.2 µM (inactive); in assay [19], 35.8 µM (inactive). In addition, the GI50 in assay [20] was 33.9 µM (inactive).

For `O=C1/C(=C/c2ccccc2[N+](=O)[O-])N=C(c2ccccc2)N1C1Nc2cc3c(cc2S1)NC(N1C(=O)/C(=C/c2ccccc2[N+](=O)[O-])N=C1c1ccccc1)S3` (stereo not given), the GI50 in assay [1] is 28.4 µM (inactive); in assay [2], 8.51 µM (inactive); in [4], 18.1 µM (inactive); in assay [5] it was 35 µM (inactive); in assay [6] it was 47.3 µM (inactive); in assay [7], 37.1 µM (inactive). The GI50 in assay [8] was 50.4 µM (inactive); in assay [9] it was 27.5 µM (inactive); in [10], 17.3 µM (inactive); in assay [11] it was 42.1 µM (inactive); in assay [12], 29 µM (inactive); in assay [14] it was 12.6 µM (inactive). For the same compound, the GI50 was 44.8 µM (inactive) in assay [15]; 61.5 µM (inactive) in assay [16]; 40.4 µM (inactive) in [17]; 25.1 µM (inactive) in assay [18]; 51.6 µM (inactive) in assay [19].
